Measurements published in article PMC6511062, “Preclinical candidate for the treatment of visceral leishmaniasis that acts through proteasome inhibition” (Proceedings of the National Academy of Sciences of the …, 2019).
Where “and” joins values, the source holds several entries; their conditions need not be identical. Equal entries are not always repeated. Entries after “also recorded” stand apart in the source; their conditions may differ.

Tests used:
L. donovani (LV9) = experiment: Mouse model of VL (in vivo efficacy in female Balb/C mice); set-up: species or system Leishmania donovani
Experimental: Infected mice were dosed at 3, 10, or 25 mg/kg orally twice a day for 10 consecutive days. Two days after the termination of treatment, mice were euthanized, and the parasite burdens in their livers were determined.
Peripheral blood samples were obtained at 5, 15, 30 min, 1, 2, 4, 6 ,8 and 24 h after intravenous administration and 15, 30, 45 min,1, 2, 4, 6, 8 and 24 h after oral administration. Blood was 1/2 diluted with milliQ water and immediately frozen on dry ice until analysis. Quantification was performed by means of LC-MS/MS (API4000), with a lower limit of quantification of 1 ng/mL. […]
Data analysis and calculation of pharmacokinetic parameters was performed using Phoenix, WinNonLin Version 6.3. […]
For both intravenous and oral administration, the systemic exposures were determined by calculating the area under the blood concentration time curve (AUC) from the start of dosing to the last observed quantifiable concentration (AUC0-t) by using the linear up-log down trapezoidal rule. The slope of the terminal elimination phase was estimated by linear regression of the terminal data points (minimum 3 points) from a natural log concentration versus time plot of the data. The half-life (t1/2) of the terminal elimination phase was calculated as t1/2 = 0.693/λ.
7. In vivo efficacy in female Balb/C mice
To establish infection in mice, sodium stibogluconate-sensitive L. donovani (LV9, WHO designation: MHOM/ET/67/HU3) amastigotes were isolated from the spleen of a heavily infected donor hamster (Janvier, France)7. An inoculum containing 1.0 x 10^8 amastigotes/mL in Dulbecco’s modified eagles medium (high glucose) was prepared […]
and female BalbC mice (Harlan, UK) then infected intravenously via the tail vein with a 0.2 mL bolus (equivalent to ~2.0 x 10^7 amastigotes). Infection was left to establish for […]
daily orally as a suspension in 0.5% hydroxypropylmethylcellulose, 0.4% tween 80 and 0.5% benzyl alcohol. With twice daily regimens, the second daily dose was administered approximately 8 h following the first dose. Dose regimens evaluated were:
1. 50 mg/kg twice daily for 5 days
2. 25 mg/kg, 10 mg/kg and 3 mg/kg twice daily for 10 days
3. 25 mg/kg once daily for 10 days
Miltefosine, as the only oral treatment for visceral leishmaniasis, was used as a […]

[1] = tested on: L. donovani proteasome β subunits; experiment: Activity-based probe (UbiQ-018) labelling of L. donovani proteasome; format: binding, Leishmania donovani; settings: 100 µM
Experimental: m. Activity-Based Probe Labelling of THP1 and L. donovani proteasome
Proteasome enriched fractions from THP1 (20 µg), L. donovani (10 µg) and L. donovani […]
µM for 1 h. Proteasome enriched fractions were also incubated with DMSO as control.
For all proteasome labelling experiments, the active-site probe Me4BodipyFL-Ahx3Leu3VS (UbiQ-018) was used at final concentration of 500 nM in sucrose buffer (50 mM Tris buffer pH 7.5, 5 mM magnesium chloride, 1 mM EDTA, 50 mM NaCl, 250 mM sucrose, 2 mM ATP, 1 mM DTT). Proteasome enriched fractions treated with […]
DMSO or test compounds, were incubated with the probe for 2h at RT. Samples were then denatured by addition of Laemmli sample buffer, heated to 95°C for 10 min and separated by electrophoresis on a 15% SDS-PAGE acrylamide gel. Following separation, gels were scanned in the fluorescein channel of a ChemiDoc reader (λ excitation/emission = 480/530 nm). Fluorescent proteins were excised and MALDI– TOF analysis carried out by the FingerPrints Proteomics service at the University of […]
10. Measuring Proteolytic activity of Leishmania tarentolae Proteasome […]
pre-prepared as a 10 mM stocks in 100 % DMSO and then diluted 1 in 3, over 11 points, prior to dispense of 100 nl of each dilution series into black, low volume, 384-well microplates. Proteasome was prepared as a 0.5 µg/mL working solution in assay buffer (50 mM HEPES (pH 7.5), 150 mM NaCl, 5 mM MgCl2, 5% glycerol, 1 mM CHAPS) and 5 µL was added using a Multidrop Micro (Thermo Fisher Scientific) to all wells containing compound dilutions on the test microplates. The microplates were then centrifuged for 1 min at 1000 rpm and incubated for 15 mins at 25 °C, prior to an assay initiating addition of 5 µl of fluorogenic substrate, which had been prepared as a 1 µM […]
The assay microplates were then centrifuged for 10 secs before using a Tecan M1000 Pro to monitor the increase of fluorescent intensity at 25 °C by excitation of the liberated Rhodamine110 at 485 nm and emission at 535 nm every 125 secs for 20 cycles. […]
calculate initial rates of reactions for all assay wells on the microplate by fitting to a linear regression model. The initial rates of reaction for all compound concentrations tested were normalised to the initial rates determined for 16 replicate control wells per microplate of both uninhibited reaction and no-proteasome background, and subsequently, IC50 values were determined by fitting the normalised data to the following four-parameter logistic model; y = a + (( b – a) / ( 1 + ( 10 ^ x / 10 ^ c ) ^ d ), where ‘a’ is the minimum, ‘b’ is […], ‘c’ is the IC50 and ‘d’ is […].
11. Cryo-EM of 20S Leishmania tarentolae proteasome a. Purification of 20S Leishmania tarentolae proteasome. […]

[2] = 10-d treatment orally twice a day

Q: What does the source list for `O=C(Nc1ccc(F)c(-c2ccn3c(N4CCOCC4)cnc3n2)c1)N1CCCC1` [Compound 8]?
A: Reduction in parasite burden (compared to the vehicle control group) (L. donovani (LV9); 3 mg/kg b.i.d. (10 days PO)): 18.4%; Reduction in parasite burden (compared to the vehicle control group) (L. donovani (LV9); 10 mg/kg b.i.d. (10 days PO)): 56.9%; Reduction in parasite burden (compared to the vehicle control group) (L. donovani (LV9); 25 mg/kg b.i.d. (10 days PO)): 98.1% and > 95%; exposure giving >95% parasite burden reduction (L. donovani (LV9); 25 mg/kg twice a day for 10 days): 27 μg/h per mililiter; Reduction in parasite burden (compared to the vehicle control group) (L. donovani (LV9); 25 mg/kg u.i.d. (10 days PO)): 8.8%; ED90 (L. donovani (LV9); [2]): 16 mg/kg; ED99 (L. donovani (LV9); [2]): 30 mg/kg; ED50 (L. donovani (LV9); Leishmania donovani, po, 240 h, 10-d treatment orally twice a day): 8.9 mg/kg; UbiQ-018 labelling of proteasome subunits ([1]; L. donovani WT extracts): selectively blocks labeling of β5; also recorded: selectively blocked UbiQ-018 labeling of the β5 subunit; UbiQ-018 labelling of proteasome subunits ([1]; L. donovani-resistant RES II extracts): could not be abolished
